Reference: patent US20230390220A1, “MONOAMINE OXIDASE BLOCKADE THERAPY FOR TREATING CANCER THROUGH REGULATING ANTITUMOR T CELL IMMUNITY” (THE REGENTS OF THE UNIVERSITY OF CALIFORNIA, priority 2020, published 2023)

What was measured:
CD8 T cells = experiment: In vitro mouse CD8 T cell activation with anti-CD3 (ELISA / flow cytometry); assay type: cell-based; conditions: for CD8 T cell hyperactivation (expression of CD25, Granzyme B, IL-2, IFN-γ): B6 wildtype CD8 T cells, anti-CD3, Phe 10 μM, Moc 200 μM, Clo 20 μM; for IL-2 and IFN-γ production: Maoa-WT CD8 T cells, 4-day time course post anti-CD3, treatment 10 μM vs NT
From the text: The coating and biotinylated antibodies for the detection of mouse IFN-γ (coating antibody, cat #554424; biotinylated detection antibody, cat #554426) and IL-2 (coating antibody, cat #551216; biotinylated detection antibody, cat #554410) were purchased from BD Biosciences. The streptavidin-HRP conjugate (Cat #18410051) was purchased from Invitrogen. Mouse IFN-γ (Cat #575309) and IL-2 (Cat #575409) standards were purchased from BioLegend. The 3,3′,5,5′-Tetramethylbenzidine (TMB, cat #51200048) substrate was purchased from KPL.

5-HTRs on CD8 T cells = experiment: Western blot of 5-HTR (MAPK) and TCR signaling in CD8 T cells; assay type: cell-based, mouse; conditions: anti-CD3 2 days, asenapine 10 μM, restimulated 20 minutes
Procedure: CD8 T cells purified from Maoa-WT and Maoa-KO mice were cultured in vitro in a 24-well plate at 0.5×10^6 cells per well for 2 days, in the presence of plate-bound anti-mouse CD3ε (5 μg/ml), with or without asenapine treatment (10 μM). Cells were then rested on ice for 2 hours and restimulated with plate-bound anti-mouse CD3ε (5 μg/ml) for 20 minutes. Total protein was extracted using a lysis buffer containing 20 mM HEPES (pH 7.6), 150 mM NaCl, 1 mM EDTA, 1% TritonX-100, and protease/phosphatase inhibitor cocktail (Cat #5872S, Cell Signaling). Nuclear protein was extracted using a Nuclear Protein Extraction Kit (Cat #P178833, Thermo Fisher Scientific). Protein concentration was measured a BCA Assay Kit (Cat #23228 and Cat #1859078, Thermo Fisher Scientific). Equal amounts of protein were resolved on a 10% SDS-PAGE gel and then transferred to a PVDF membrane by electrophoresis. MAO-A antibody was purchased from Abcam (Cat #ab126751, Clone EPR7101). […] Signals were visualized with autoradiography using an ECL system (Cat #RPN2232, Thermo Fisher Scientific). The data were analyzed using an Image Lab software (Bio-Rad).

B16-OVA melanoma [1] = conditions: Maoa-WT mice
Procedure: (§1) B16-OVA melanoma cells (1×10^6 per animal) or MC38 colon cancer cells (3×10^5 per animal) were subcutaneously (s.c.) injected into experimental mice to form solid tumors. In some experiments, mice received intraperitoneal (i.p.) injection of MAOIs (i.e., phenelzine, 30 mg/kg/day; moclobimide, 50 mg/kg/day; or clorgyline, 50 mg/kg/day) to block MAO-A activity. In some experiments, mice received i.p. injection of anti-mouse CD8α antibodies (200 μg/animal/bi-weekly) to deplete CD8 T cells; mice received i.p. injection of isotype antibodies were included as controls. In some experiments, mice received i.p. injection of anti-mouse PD-1 antibodies (300 μg/animal/bi-weekly) to block PD-1; mice received i.p. injection of isotype antibodies were included as controls.
(§2) During an experiment, tumor growth was monitored twice per week by measuring tumor size using a Fisherbrand™ Traceable™ digital caliper (Thermo Fisher Scientific); tumor volumes were calculated by formula ½×L×W^2. At the end of an experiment, tumor-infiltrating immune cells were isolated for analysis using QPCR, flow cytometry, and/or scRNASeq. In some experiments, sera were also collected for serotonin measurement.
HPLC was used to measure intratumoral and serum serotonin levels as previously described (47, 48). Briefly, tumors and sera were collected from experimental mice at indicated time points, and were snap-frozen using liquid nitrogen. Frozen samples were thawed and homogenized using methanol and acetonitrile by vortexing. Homogenized samples were centrifuged, and supernatants were collected to new tubes and evaporated under a stream of argon. Dried sample pellets were then reconstituted in HPLC running buffer and were ready for analysis. Serotonin concentration was quantified using a C 18 column by reverse phase HPLC (System Gold 166P detector, Beckman Coulter)

B16-OVA melanoma [2] = experiment: Syngeneic B16-OVA melanoma tumor model, tumor growth; assay type: in vivo, mouse; conditions: for Tumor growth, B16-OVA melanoma prevention model: i.p., phenelzine 30 mg/kg/day, moclobimide 50 mg/kg/day, clorgyline 50 mg/kg/day
Procedure: as §1, §2

MC38 colon cancer = tested on: MC38 colon cancer
Procedure: as §1, §2

[3] = tested on: tumor-infiltrating CD8 T cells; conditions: B16-OVA, day 17, phenelzine vs NT, FACS
Procedure: as §1

[4] = tested on: A375-A2-ESO-FG human melanoma cells
Procedure: The A375-A2-ESO-FG human melanoma cells (10×10^6 cells per animal) were s.c. injected into NSG mice to form solid tumors. In some experiments, mice received phenelzine treatment through i.p. injection (30 mg/kg/day). In some experiments, mice received adoptive transfer of ESO-T cells through r.o. injection (4×10^6 cells per recipient mouse). Prior to ESO-T cell adoptive transfer, recipient mice were preconditioned with total body irradiation (100 rads). During an experiment, tumor growth was monitored twice per week by measuring tumor size using a Fisherbrand™ Traceable™ digital caliper; tumor volumes were calculated by formula ½×L×W^2.

Maoa-WT CD8 T cells = conditions: 24-hour post anti-CD3 stimulation, phenelzine 10 μM vs NT, ELISA
Procedure: Spleen and lymph node cells were harvested from Maoa-KO or Maoa-WT (B6 wildtype) mice and subjected to MACS using a Mouse CD8 T Cell Isolation Kit (Cat #120117044, Miltenyi Biotec) following the manufacturer's instructions. Purified mouse CD8 T cells were cultured in vitro in C10 medium, in a 24-well plate at 0.5×10^6 cells per ml medium per well, in the presence of plate-bound anti-mouse CD3ε (5 μg/ml) for up to 4 days. At indicated time points, cells were collected for flow cytometry analysis of surface marker expression and intracellular effector molecule production, and for QPCR analysis of mRNA expression; cell culture supernatants were collected for ELISA analysis of effector cytokine production. In experiments studying serotonin signaling, cells were cultured in C10 medium made of serotonin-depleted FBS that was pretreated overnight with charcoal-dextran (Cat #C6241, Sigma; 1 gram per 50 ml FBS). L-Ascorbic acid (Cat #A4403, Sigma; 100 μM) was added to C10 medium to stabilize T cell-produced or supplemented serotonin. […] In some experiments, cells were supplemented with exogenous serotonin (SER, 10 μM) to stimulate serotonin signaling. In some experiments, cells were treated with serotonin receptor antagonist asenapine (ASE, 10 μM) to block serotonin receptor signaling. […] The absorbance at 450 nm was measured using an Infinite M1000 microplate reader (Tecan).

[5] = B6 wildtype mice, combination study with anti-PD-1 (Iso, Phe+Iso, αPD-1, Phe+αPD-1)

`CN1CC2c3ccccc3Oc3ccc(Cl)cc3C2C1` (stereo not drawn) [asenapine] was tested, and the “IL-2 and IFN-γ production difference between Maoa-WT and Maoa-KO CD8 T cells” value (CD8 T cells; day 2 post anti-CD3 stimulation, asenapine 10 μM, ELISA) was “eliminated the cytokine production difference between Maoa-WT and Maoa-KO CD8 T cells” and the “Enhancement of MAPK signaling (ERK phosphorylation) and TCR downstream signaling (NFAT, NF-κB, c-Jun) in Maoa-KO T cells” value (5-HTRs on CD8 T cells) was “largely abrogated”.

For `NNCCc1ccccc1` [phenelzine], the “CD8 T cell hyperactivation (expression of CD25, Granzyme B, IL-2, IFN-γ)” value (“CD8 T cell hyperactivation” for short) (CD8 T cells) was “efficiently induced CD8 T cell hyperactivation”, the “IL-2 and IFN-γ production” value (CD8 T cells; ELISA) was “increased production of the effector cytokines IL-2 and IFN-γ” and the “Phenelzine treatment-induced accumulation of serotonin in the tumor after depletion of CD8 T cells” value (B16-OVA melanoma [1]; anti-CD8 antibody depletion, day 14, HPLC) was “largely abolished”. For the same compound, the Serum serotonin levels (B16-OVA melanoma [1]; day 14, with or without phenelzine and anti-CD8, HPLC) was “no significant changes in serotonin levels in serum”, the Intratumoral serotonin levels (B16-OVA melanoma [1]; day 14 post tumor challenge, phenelzine vs NT, HPLC) was “increased levels of serotonin” and the B16-OVA tumor growth (B16-OVA melanoma [2]; [5]) was “significantly suppressed tumor growth at a level comparable to the anti-PD-1 treatment”. The “Tumor growth, B16-OVA melanoma prevention model” value (B16-OVA melanoma [2]; B6 wildtype mice) was “dramatically suppressed tumor growth”, the “Tumor progression, pre-established B16-OVA melanoma solid tumors” value (B16-OVA melanoma [2]; B6 wildtype mice, phenelzine vs NT) was “effectively suppressed tumor progression” and the “B16-OVA tumor growth in immunodeficient NSG mice” value (B16-OVA melanoma [2]; NSG mice, phenelzine vs NT) was “did not suppress the growth”. The “Tumor suppression with CD8 T cells depleted” value (B16-OVA melanoma [2]; tumor-bearing B6 wildtype mice, phenelzine + anti-CD8) was “no tumor suppression was observed”, the MC38 tumor growth (MC38 colon cancer; [5]) was “completely suppressed tumor growth as effectively as the anti-PD-1 treatment” and the “MC38 tumor growth in immunodeficient NSG mice” value (MC38 colon cancer; NSG mice, phenelzine vs NT) was “did not suppress the growth”. The “Expression of exhaustion markers (PD-1) on tumor-infiltrating CD8 T cells” value [3] was “reduced expression of exhaustion markers”, the “Production of effector molecules (IFN-γ and Granzyme B) by tumor-infiltrating CD8 T cells” value [3] was “enhanced production of effector molecules” and the “A375-A2-ESO-FG tumor growth without ESO-T cell adoptive transfer” value ([4]; NSG mice without ESO-T cells, phenelzine vs NT) was “no tumor suppression was observed”. The “A375-A2-ESO-FG tumor growth with ESO-T cell adoptive transfer” value ([4]; NSG mice, ESO-T cells, phenelzine i.p. 30 mg/kg/day vs NT) was “effectively suppressed tumor growth” and the “Serotonin levels in CD8 T cell cultures” value (Maoa-WT CD8 T cells) was “recapitulated the serotonin overproduction phenotype of Maoa-KO CD8 T cells”.

With `NCCc1c[nH]c2ccc(O)cc12` [serotonin] the “IL-2 and IFN-γ production” value (CD8 T cells; ELISA) was “T cell hyperactivation and elevated production of IL-2 and IFN-γ”.

For `O=C(NCCN1CCOCC1)c1ccc(Cl)cc1` [mocolobemide, moclobemide], the “CD8 T cell hyperactivation” value (CD8 T cells) was “efficiently induced CD8 T cell hyperactivation” and the “Tumor growth, B16-OVA melanoma prevention model” value (B16-OVA melanoma [2]; B6 wildtype mice) was “dramatically suppressed tumor growth”.

In the case of `C#CCN(C)CCCOc1ccc(Cl)cc1Cl` [clorgyline], the “CD8 T cell hyperactivation” value (CD8 T cells) is reported as “efficiently induced CD8 T cell hyperactivation” and the “Tumor growth, B16-OVA melanoma prevention model” value (B16-OVA melanoma [2]; B6 wildtype mice) is reported as “dramatically suppressed tumor growth”.
